Source: ChEMBL document CHEMBL1137640, “In vitro antimycobacterial spectrum of a diarylquinoline ATP synthase inhibitor” (2007)
Values after ≈ are worked out from the molar mass of the structure shown.

System: Mycobacterium tuberculosis
Assay: Antimicrobial activity against multidrug-resistant Mycobacterium tuberculosis isolate after 2 to 4 weeks by two fold dilution method
Assay type: functional

COc1nc2ccc(Br)cc2cc1[C@@H](c1ccccc1)[C@@](O)(CCN(C)C)c1cccc2ccccc12 [BEDAQUILINE]
MIC: 0.004 µg/mL (≈ 0.0072 µM) | MIC50: 0.03 µg/mL (≈ 0.054 µM) | MIC90: 0.06 µg/mL (≈ 0.108 µM)
